Test: Welfare of cows induced to dry off (Example 6): udder pressure index, steps/lying ratio
Assay type: in vivo, Holstein cows
Experimental: 20 Holstein cows toward the end of lactation (˜60 days) and producing 17-35 liters milk per day were entered to the study. Cows were paired according to lactation number, days in milk, days to parturition, teat-end integrity, milk yield, SCC per ml of milk per cow or quarter and number of quarters infected at day of drying-off (Table 13).
Quarter's milk SCC and bacterial isolation were tested a week apart for 3 times, before drying-off. One cow of each pair was then assigned to a subgroup randomly (by flipping a coin). Cows in subgroup 1 were treated after milking with casein hydrolyzate and with the broad range antibiotic Cefquinome, (75 mg per dose) (N+C), while the cows in subgroup 2 were treated with Cefquinome alone (75 mg per dose) (C). […]
Udder pressure index (UPI) was set as follows: 0, 1, 2 and 3, where 0 is no pressure, 1 is medium pressure, 2 is high pressure and 3 is extremely high pressure. Arbitrary UPI values were determined by assessing the udder pressure by pressing a finger into the tissue and assessing its resistant to pressure in two areas, the milk cistern and corpus ubeis, 10 cm above the teats. […]
Data were statistically analyzed using the fit model procedure for repeated measurements of JMP (Version 5, SAS Institute, Cary, N.C.); treatment was the between-subject factor and time was the within-subject factor. […]

CO/N=C(\C(=O)N[C@@H]1C(=O)N2C(C(=O)[O-])=C(C[n+]3cccc4c3CCCC4)CS[C@H]12)c1csc(N)n1 [C, Cefquinome]
Udder pressure index (UPI), single cow (day 4 after treatment, cow with milk yield over 30 liters per day at dry-off (FIG. 4)): ~2 | ratio between number of steps and duration of lying (RSL) (from the second day after treatment, 10 cows per group (FIG. 5)): unchanged

Reference: US8338363B2, “Pharmaceutical compositions comprising casein derived peptides and methods of use thereof” (Mileutis Ltd., priority 2005, dated 2012)
